Test: xn = mol fraction of the nth substance listed, in the solute-free solvent

Nc1nccnc1Cl + CC(C)O + O
solubility (g/100 g solution)
Details | 278.15 K | 283.15 K | 288.15 K | 293.15 K | 298.15 K | 303.15 K | 308.15 K | 313.15 K | 318.15 K | 323.15 K
x2 = 0.03225 | 0.0425 | 0.0564 | 0.0738 | 0.092 | 0.112 | 0.133 | 0.154 | 0.178 | 0.201 | 0.227
x2 = 0.06974 | 0.0786 | 0.103 | 0.134 | 0.166 | 0.201 | 0.237 | 0.275 | 0.316 | 0.356 | 0.402
x2 = 0.1139 | 0.129 | 0.168 | 0.215 | 0.266 | 0.321 | 0.38 | 0.439 | 0.503 | 0.567 | 0.64
x2 = 0.1666 | 0.19 | 0.245 | 0.313 | 0.387 | 0.466 | 0.551 | 0.638 | 0.729 | 0.824 | 0.93
x2 = 0.2307 | 0.242 | 0.315 | 0.4 | 0.503 | 0.609 | 0.724 | 0.84 | 0.962 | 1.09 | 1.24
x2 = 0.3103 | 0.31 | 0.394 | 0.503 | 0.621 | 0.753 | 0.893 | 1.05 | 1.2 | 1.38 | 1.57
x2 = 0.4117 | 0.355 | 0.459 | 0.585 | 0.73 | 0.887 | 1.06 | 1.23 | 1.42 | 1.61 | 1.85
x2 = 0.5454 | 0.393 | 0.507 | 0.645 | 0.808 | 0.982 | 1.18 | 1.38 | 1.58 | 1.83 | 2.1
x2 = 0.7297 | 0.411 | 0.529 | 0.672 | 0.836 | 1.02 | 1.23 | 1.45 | 1.67 | 1.93 | 2.26

O=C(O)CC(O)C(=O)O (centres undefined) + C1CCOC1 + CCOC(C)=O
solubility (g/100 g solution)
Details | 278.15 K | 283.15 K | 288.15 K | 293.15 K | 298.15 K | 303.15 K | 308.15 K | 313.15 K | 318.15 K | 323.15 K
x2 = 0.234 | 9.32 | 10.1 | 11 | 12 | 13.2 | 14.4 | 15.8 | 17.2 | 18.6 | 20.4
x2 = 0.3437 | 13.6 | 14.7 | 15.9 | 17.2 | 18.7 | 20.4 | 22.1 | 24 | 26.1 | 28.7
x2 = 0.4489 | 19.3 | 20.5 | 21.8 | 23.2 | 24.7 | 26.3 | 27.9 | 29.9 | 31.9 | 34.2
x2 = 0.55 | 24.6 | 26 | 27.6 | 29 | 30.8 | 32.7 | 34.6 | 36.6 | 39.2 | 41.8
x2 = 0.647 | 27.6 | 28.9 | 30.5 | 32.2 | 34.2 | 36.3 | 38.4 | 40.8 | 43.5 | 46.4
x2 = 0.7403 | 30.1 | 31.8 | 33.3 | 34.9 | 36.9 | 38.8 | 40.9 | 43.3 | 46 | 48.7
x2 = 0.8302 | 34.8 | 36 | 37.7 | 39 | 40.7 | 42.6 | 44.4 | 46.4 | 48.7 | 51.4

Nc1ccc(Oc2ccc(N)cc2)cc1 + CC(=O)N(C)C + CCO
solubility (g/100 g solution)
Details | 293.15 K | 298.15 K | 303.15 K | 308.15 K | 313.15 K | 318.15 K | 323.15 K | 328.15 K | 333.15 K
x2 = 0.0555 | 0.741 | 0.782 | 0.905 | 1.15 | 1.39 | 1.68 | 1.96 | 2.28 | 2.64
x2 = 0.1168 | 1.32 | 1.4 | 1.59 | 1.94 | 2.32 | 2.66 | 3 | 3.15 | 4.12
x2 = 0.1848 | 2.35 | 2.56 | 2.88 | 3.13 | 3.63 | 4.09 | 4.68 | 4.75 | 6.13
x2 = 0.2606 | 3.91 | 4.24 | 4.6 | 5.13 | 5.62 | 6.3 | 7.13 | 7.67 | 8.79
x2 = 0.3459 | 6.23 | 6.74 | 7.16 | 7.94 | 8.38 | 9.29 | 10.3 | 11 | 12.2
x2 = 0.4423 | 9.4 | 10 | 10.6 | 11.4 | 12 | 13.1 | 14 | 15.2 | 16.3
x2 = 0.5523 | 13.3 | 14.1 | 14.8 | 15.3 | 16.3 | 17.5 | 18.6 | 19.7 | 21.1
x2 = 0.679 | 17.9 | 18.6 | 19.3 | 20.2 | 21 | 22 | 23.2 | 24.2 | 25.1
x2 = 0.8264 | 22.6 | 23.5 | 24 | 24.5 | 25.6 | 26.7 | 27.4 | 28.7 | 30

CCCCCOC(=O)Nc1nc(=O)n(C2OC(C)C(O)C2O)cc1F (centres undefined) + CCOC(C)=O + CCCCCCC
solubility (g/100 g solution)
Details | 278.15 K | 283.15 K | 288.15 K | 293.15 K | 298.15 K | 303.15 K | 308.15 K | 313.15 K | 318.15 K | 323.15 K
x2 = 0.3 | 0.0197 | 0.0268 | 0.0361 | 0.0476 | 0.0629 | 0.0818 | 0.106 | 0.136 | 0.174 | 0.22
x2 = 0.4 | 0.0475 | 0.0561 | 0.0765 | 0.0904 | 0.106 | 0.132 | 0.154 | 0.184 | 0.216 | 0.267
x2 = 0.5 | 0.0862 | 0.111 | 0.141 | 0.179 | 0.221 | 0.274 | 0.337 | 0.411 | 0.502 | 0.604
x2 = 0.5998 | 0.131 | 0.166 | 0.212 | 0.286 | 0.332 | 0.407 | 0.518 | 0.643 | 0.749 | 0.931
x2 = 0.7 | 0.266 | 0.34 | 0.455 | 0.554 | 0.682 | 0.849 | 1.07 | 1.31 | 1.63 | 1.98
x2 = 0.8 | 0.485 | 0.609 | 0.801 | 0.99 | 1.27 | 1.6 | 2.05 | 2.49 | 3.12 | 3.74
x2 = 0.9001 | 0.622 | 0.794 | 1.08 | 1.44 | 1.81 | 2.46 | 3.02 | 4.02 | 4.87 | 6.07

S=c1[nH]ncs1 + CC(C)=O + O
solubility (g/100 g solution)
Details | 278.15 K | 283.15 K | 288.15 K | 293.15 K | 298.15 K | 303.15 K | 308.15 K | 313.15 K | 318.15 K | 323.15 K
x2 = 0.1 | 1.78 | 2.36 | 2.99 | 3.78 | 4.76 | 6 | 7.45 | 9.31 | 11.5 | 14.2
x2 = 0.2 | 6.07 | 7.41 | 8.84 | 10.6 | 12.5 | 14.8 | 17.3 | 20.2 | 23.6 | 27.1
x2 = 0.3 | 11.4 | 13.3 | 15.3 | 17.4 | 19.6 | 22.2 | 24.9 | 28.1 | 30.9 | 34.4
x2 = 0.4 | 15.7 | 17.9 | 20.2 | 22.5 | 24.8 | 27.1 | 29.6 | 32.5 | 35.3 | 38.5
x2 = 0.5 | 19.8 | 21.7 | 23.7 | 25.6 | 27.8 | 30.3 | 32.6 | 34.8 | 37.3 | 40.1
x2 = 0.6 | 22 | 23.6 | 25.6 | 27.3 | 29.3 | 31.4 | 33.2 | 35.3 | 37.6 | 39.8
x2 = 0.7 | 22.6 | 24.3 | 26.2 | 27.7 | 29.5 | 31.4 | 33.2 | 35 | 37.1 | 39.3
x2 = 0.8 | 23.1 | 24.5 | 25.9 | 27.4 | 29.1 | 30.8 | 32.5 | 34 | 35.7 | 37.4
x2 = 0.9 | 21.4 | 22.6 | 24.2 | 25.6 | 27.2 | 28.6 | 30.4 | 32.1 | 33.7 | 35.3

CN1CCN(C2=Nc3cc(Cl)ccc3Nc3ccccc32)CC1 + ClC(Cl)Cl + Cc1ccccc1
solubility (g/100 g solution)
Details | x2 = 0.07983 | x2 = 0.1632 | x2 = 0.2513 | x2 = 0.3428 | x2 = 0.4382 | x2 = 0.5396 | x2 = 0.6452 | x2 = 0.7576 | x2 = 0.8755
293.15 K | 2.67 | 2.81 | 3.33 | 3.96 | 4.41 | 5.51 | 6.99 | 8.93 | 11.8
298.15 K | 3.12 | 3.3 | 3.67 | 4.31 | 4.65 | 6.29 | 7.75 | 10.1 | 12.8
303.15 K | 3.39 | 3.85 | 4.08 | 4.65 | 5.25 | 6.98 | 8.51 | 10.9 | 13.3
308.15 K | 3.94 | 4.46 | 4.87 | 5.59 | 6.7 | 7.99 | 9.81 | 12.6 | 14.4
313.15 K | 4.95 | 5.37 | 6 | 6.97 | 7.69 | 9.1 | 11.1 | 13.9 | 16.5
318.15 K | 5.94 | 6.56 | 6.71 | 8.12 | 9.11 | 10.3 | 12.3 | 16.2 | 19.1
323.15 K | 6.09 | 7.9 | 9.16 | 10 | 10.9 | 12.6 | 15.7 | 19.2 | 22.4

Cl.N=C(N)N + COCCO + CCCO
solubility (g/100 g solution)
Details | 278.15 K | 283.15 K | 288.15 K | 293.15 K | 298.15 K | 303.15 K | 308.15 K | 313.15 K | 318.15 K | 323.15 K
x2 = 0.08075 | 10.4 | 11.1 | 12.4 | 13.1 | 14.6 | 15.7 | 16.7 | 17.6 | 19.2 | 20.2
x2 = 0.253 | 17.4 | 18.7 | 20.1 | 20.9 | 21.8 | 23.2 | 24.1 | 24.9 | 25.7 | 26.9
x2 = 0.4413 | 23.9 | 24.8 | 25.9 | 26.6 | 27.7 | 28.3 | 29.1 | 30 | 30.9 | 31.4
x2 = 0.6479 | 29.4 | 30.1 | 30.7 | 31.8 | 32.2 | 33.2 | 33.8 | 34.3 | 35 | 35.6
x2 = 0.8768 | 32.5 | 33.2 | 34.3 | 34.9 | 35.8 | 36.6 | 37.1 | 38.3 | 38.9 | 39.5
